Measured values: patent publication US20250270190A1, “KIT INHIBITORS” (BLUEPRINT MEDICINES CORPORATION, priority 2022, published 2025)
Counter-ions that a name gives are not always drawn.

Target: T1, c-kit autophosphorylation (Phospho c-Kit Tyr721) in HMC 1.1 (exon 11/13) cells, V654A (Homo sapiens, UniProt P10721, V560G/V654A)
T1 construct: endogenous in cells; host or cells: HMC 1.1 (exon 11/13) cells
Assay: pKIT Meso Scale Discovery (MSD) assay, inhibition of autophosphorylation of KIT, HMC1.1_V654A
Type: cell-based
Conditions: Table 1, cell line not named for Table 1, b1056 names pKIT HMC1.1_V654A, read-out: Code (IC50 for inhibition of autophosphorylation of KIT, pKIT MSD assay)
How it was run: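 HMC1.1 cells were serum-starved for 4 h in serum-free, iron-free, phenol red-free IMDM, then treated with compound in dose-response for 90 min at 37 °C. Staurosporine and DMSO served as controls. Lysates were analysed by MSD electrochemiluminescence immunoassay for phospho-c-Kit Tyr721, and % inhibition of autophosphorylation was derived.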

T1 sequence (P10721 26-976 V560G/V654A): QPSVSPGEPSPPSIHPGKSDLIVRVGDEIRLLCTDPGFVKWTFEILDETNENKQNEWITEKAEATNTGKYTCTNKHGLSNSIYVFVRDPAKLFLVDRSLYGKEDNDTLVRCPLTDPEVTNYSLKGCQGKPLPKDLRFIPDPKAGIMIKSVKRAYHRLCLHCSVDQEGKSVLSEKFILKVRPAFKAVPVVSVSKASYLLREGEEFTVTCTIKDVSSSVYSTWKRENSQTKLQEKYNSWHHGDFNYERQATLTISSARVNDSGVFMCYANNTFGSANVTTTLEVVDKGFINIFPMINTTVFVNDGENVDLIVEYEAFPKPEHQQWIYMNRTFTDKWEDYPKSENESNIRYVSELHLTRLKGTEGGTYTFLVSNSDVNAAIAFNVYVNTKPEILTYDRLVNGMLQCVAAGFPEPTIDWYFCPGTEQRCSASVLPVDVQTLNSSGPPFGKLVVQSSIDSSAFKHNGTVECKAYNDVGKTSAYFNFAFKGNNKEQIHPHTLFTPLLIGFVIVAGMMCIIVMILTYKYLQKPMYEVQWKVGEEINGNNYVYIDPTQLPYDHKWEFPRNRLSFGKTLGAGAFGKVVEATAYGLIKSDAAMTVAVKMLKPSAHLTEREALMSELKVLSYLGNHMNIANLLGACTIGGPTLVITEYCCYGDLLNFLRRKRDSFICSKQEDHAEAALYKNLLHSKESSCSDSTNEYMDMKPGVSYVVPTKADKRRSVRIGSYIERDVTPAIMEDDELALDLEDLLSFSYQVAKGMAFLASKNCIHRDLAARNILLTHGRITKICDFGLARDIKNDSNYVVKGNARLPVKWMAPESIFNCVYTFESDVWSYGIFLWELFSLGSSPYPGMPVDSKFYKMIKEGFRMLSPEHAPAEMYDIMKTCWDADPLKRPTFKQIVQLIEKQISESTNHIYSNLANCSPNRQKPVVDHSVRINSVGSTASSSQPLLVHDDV

Structure (SMILES)	IC50 [nM]
COc1cc(Nc2cc(N)nc(C(F)F)n2)ncc1-c1cnn(C2CCNC2)c1 (centres unmarked) [Compound 97, 2-(difluoromethyl)-N4-(4-methoxy-5-(1-(pyrrolidin-3-yl)-1H-pyrazol-4-yl)pyridin-2-yl)pyrimidine-4,6-diamine]	10 to 40
Cc1noc(-c2cnc(Nc3cc(N)nc(C(F)F)n3)cc2NC(C)C)n1 [Compound 58, 2-(difluoromethyl)-N4-(4-(isopropylamino)-5-(3-methyl-1,2,4-oxadiazol-5-yl)pyridin-2-yl)pyrimidine-4,6-diamine]	> 40
CCNC(=O)c1cnc(Nc2cc(N)nc(C(F)F)n2)cc1N[C@@H](C)CF [Compound 71, (S)-6-((6-amino-2-(difluoromethyl)pyrimidin-4-yl)amino)-N-ethyl-4-((1-fluoropropan-2-yl)amino)nicotinamide]	< 10
CNC(C)(C)Cn1cc(-c2cnc(Nc3cc(N)nc(C(F)F)n3)cc2OC2CC2)cn1 [Compound 184, N4-(4-cyclopropoxy-5-(1-(2-methyl-2-(methylamino)propyl)-1H-pyrazol-4-yl)pyridin-2-yl)-2-(difluoromethyl)pyrimidine-4,6-diamine]	< 10
Cn1cc(-c2cnc(Nc3cc(N)nc(C(F)F)n3)cc2OCC2CCO2)cn1 (centres unmarked) [Compound 105, 2-(difluoromethyl)-N4-(5-(1-methyl-1H-pyrazol-4-yl)-4-(oxetan-2-ylmethoxy)pyridin-2-yl)pyrimidine-4,6-diamine]	10 to 40
COc1cc(Nc2cc(N)nc(C(F)F)n2)ncc1-c1cnn(C2CN(C)C2)c1 [Compound 103, 2-(difluoromethyl)-N4-(4-methoxy-5-(1-(1-methylazetidin-3-yl)-1H-pyrazol-4-yl)pyridin-2-yl)pyrimidine-4,6-diamine]	< 10
CC(C)Oc1cc(Nc2cc(N)nc([C@H](C)F)n2)ncc1-c1cnn(C2COC2)c1 [Compound 129, (S)-2-(1-fluoroethyl)-N4-(4-isopropoxy-5-(1-(oxetan-3-yl)-1H-pyrazol-4-yl)pyridin-2-yl)pyrimidine-4,6-diamine]	< 10
CN1CC(n2cc(-c3cnc(Nc4cc(N)nc(C(F)F)n4)cc3OC[C@H]3CCCO3)cn2)C1 [Compound 202, (R)-2-(difluoromethyl)-N4-(5-(1-(1-methylazetidin-3-yl)-1H-pyrazol-4-yl)-4-((tetrahydrofuran-2-yl)methoxy)pyridin-2-yl)pyrimidine-4,6-diamine]	10 to 40
CCCNC(=O)c1cnc(Nc2cc(N)nc(C(F)F)n2)cc1NC(C)C [Compound 67, 6-((6-amino-2-(difluoromethyl)pyrimidin-4-yl)amino)-4-(isopropylamino)-N-propylnicotinamide]	< 10
N#CCNC(=O)c1cnc(Nc2cc(N)nc(C(F)F)n2)cc1NC1CC1 [Compound 54, 6-((6-amino-2-(difluoromethyl)pyrimidin-4-yl)amino)-N-(cyanomethyl)-4-(cyclopropylamino)nicotinamide]	10 to 40
CN[C@H](C)Cn1cc(-c2cnc(Nc3cc(N)nc(C(F)F)n3)cc2OC)cn1 (single isomer, unassigned) [Compound 118, (R)-2-(difluoromethyl)-N4-(4-methoxy-5-(1-(2-(methylamino)propyl)-1H-pyrazol-4-yl)pyridin-2-yl)pyrimidine-4,6-diamine or (S)-2-(difluoromethyl)-N4-(4-methoxy-5-(1-(2-(methylamino)propyl)-1H-pyrazol-4-yl)pyridin-2-yl)pyrimidine-4,6-diamine]	10 to 40
C[C@H](CF)Nc1cc(Nc2cc(N)nc(C(F)F)n2)ncc1C(=O)NC1CC1 [Compound 91, (R)-6-((6-amino-2-(difluoromethyl)pyrimidin-4-yl)amino)-N-cyclopropyl-4-((1-fluoropropan-2-yl)amino)nicotinamide]	< 10
COc1cc(Nc2cc(N)nc(C(F)F)n2)ncc1-c1cnn([C@H]2CCOC2)c1 (single isomer, unassigned) [Compound 109, (S)-2-(difluoromethyl)-N4-(4-methoxy-5-(1-(tetrahydrofuran-3-yl)-1H-pyrazol-4-yl)pyridin-2-yl)pyrimidine-4,6-diamine or (R)-2-(difluoromethyl)-N4-(4-methoxy-5-(1-(tetrahydrofuran-3-yl)-1H-pyrazol-4-yl)pyridin-2-yl)pyrimidine-4,6-diamine]	< 10
Nc1cc(Nc2cc(OC3CC3)c(-c3cnn(C4COC4)c3)cn2)nc(C(F)F)n1 [Compound 133, N4-(4-cyclopropoxy-5-(1-(oxetan-3-yl)-1H-pyrazol-4-yl)pyridin-2-yl)-2-(difluoromethyl)pyrimidine-4,6-diamine]	< 10
Nc1cc(Nc2cc(OC3CC3)c(-c3cnn(C4CNC4)c3)cn2)nc(C(F)F)n1 [Compound 130, N4-(5-(1-(azetidin-3-yl)-1H-pyrazol-4-yl)-4-cyclopropoxypyridin-2-yl)-2-(difluoromethyl)pyrimidine-4,6-diamine]	10 to 40
CC(C)NC(=O)c1cnc(Nc2cc(N)nc(C(F)F)n2)cc1NC1CC1 [Compound 63, 6-((6-amino-2-(difluoromethyl)pyrimidin-4-yl)amino)-4-(cyclopropylamino)-N-isopropylnicotinamide]	< 10
COc1cc(Nc2cc(N)nc(C(F)F)n2)ncc1-c1cnn([C@H]2CCNC2)c1 (single isomer, unassigned) [Compound 99, (S)-2-(difluoromethyl)-N4-(4-methoxy-5-(1-(pyrrolidin-3-yl)-1H-pyrazol-4-yl)pyridin-2-yl)pyrimidine-4,6-diamine or (R)-2-(difluoromethyl)-N4-(4-methoxy-5-(1-(pyrrolidin-3-yl)-1H-pyrazol-4-yl)pyridin-2-yl)pyrimidine-4,6-diamine]	10 to 40
COc1cc(Nc2cc(N)nc(C(F)F)n2)ncc1-c1cnn(C2CCN(C)C2)c1 (centres unmarked) [Compound 140, 2-(difluoromethyl)-N4-(4-methoxy-5-(1-(1-methylpyrrolidin-3-yl)-1H-pyrazol-4-yl)pyridin-2-yl)pyrimidine-4,6-diamine]	< 10
Cn1cc(-c2cnc(Nc3cc(N)nc(C(F)F)n3)cc2OCC(F)(F)F)cn1 [Compound 132, 2-(difluoromethyl)-N4-(5-(1-methyl-1H-pyrazol-4-yl)-4-(2,2,2-trifluoroethoxy)pyridin-2-yl)pyrimidine-4,6-diamine]	< 10
COc1cc(Nc2cc(N)nc(C(F)F)n2)ncc1-c1cnn(C[C@@H]2CCN2C)c1 (single isomer, unassigned) [Compound 139, (S)-2-(difluoromethyl)-N4-(4-methoxy-5-(1-((1-methylazetidin-2-yl)methyl)-1H-pyrazol-4-yl)pyridin-2-yl)pyrimidine-4,6-diamine or (R)-2-(difluoromethyl)-N4-(4-methoxy-5-(1-((1-methylazetidin-2-yl)methyl)-1H-pyrazol-4-yl)pyridin-2-yl)pyrimidine-4,6-diamine]	< 10
Cn1cc(-c2cnc(Nc3cc(N)nc(C(F)F)n3)cc2OC2CC2)cn1 [Compound 53, N4-(4-cyclopropoxy-5-(1-methyl-1H-pyrazol-4-yl)pyridin-2-yl)-2-(difluoromethyl)pyrimidine-4,6-diamine]	< 10
Nc1cc(Nc2cc(OC3CC3)c(-c3cnn(C[C@H]4CCN4)c3)cn2)nc(C(F)F)n1 (single isomer, unassigned) [Compound 161, (R)-N4-(5-(1-(azetidin-2-ylmethyl)-1H-pyrazol-4-yl)-4-cyclopropoxypyridin-2-yl)-2-(difluoromethyl)pyrimidine-4,6-diamine or (S)-N4-(5-(1-(azetidin-2-ylmethyl)-1H-pyrazol-4-yl)-4-cyclopropoxypyridin-2-yl)-2-(difluoromethyl)pyrimidine-4,6-diamine]	< 10
CNC(=O)c1cnc(Nc2cc(N)nc(CF)n2)cc1NC1CCC1 [Compound 14, 6-((6-amino-2-(fluoromethyl)pyrimidin-4-yl)amino)-4-(cyclobutylamino)-N-methylnicotinamide]	< 10
Cn1cc(-c2cnc(Nc3cc(N)nc(C(F)F)n3)cc2OC2CCCOC2)cn1 (centres unmarked) [Compound 142, 2-(difluoromethyl)-N4-(5-(1-methyl-1H-pyrazol-4-yl)-4-((tetrahydro-2H-pyran-3-yl)oxy)pyridin-2-yl)pyrimidine-4,6-diamine]	< 10
CC(C)Nc1cc(Nc2cc(N)nc(C(F)F)n2)ncc1C(=O)NC1CC1 [Compound 60, 6-((6-amino-2-(difluoromethyl)pyrimidin-4-yl)amino)-N-cyclopropyl-4-(isopropylamino)nicotinamide trifluoroacetate]	< 10
CC(C)(O)Cn1cc(-c2cnc(Nc3cc(N)nc(C(F)F)n3)cc2OC2CC2)cn1 [Compound 173, 1-(4-(6-((6-amino-2-(difluoromethyl)pyrimidin-4-yl)amino)-4-cyclopropoxypyridin-3-yl)-1H-pyrazol-1-yl)-2-methylpropan-2-ol]	< 10
C[C@@H](CF)Nc1cc(Nc2cc(N)nc(C(F)F)n2)ncc1C(=O)NC12CC(CO)(C1)C2 [Compound 188, (S)-6-((6-amino-2-(difluoromethyl)pyrimidin-4-yl)amino)-4-((1-fluoropropan-2-yl)amino)-N-(3-(hydroxymethyl)bicyclo[1.1.1]pentan-1-yl)nicotinamide]	10 to 40
COc1cc(Nc2cc(N)nc(C(F)F)n2)ncc1-c1cnn(C(F)F)c1 [Compound 70, 2-(difluoromethyl)-N4-(5-(1-(difluoromethyl)-1H-pyrazol-4-yl)-4-methoxypyridin-2-yl)pyrimidine-4,6-diamine]	< 10
Nc1cc(Nc2cc(OC(F)F)c(-c3cnn(CCN4CCC4)c3)cn2)nc(C(F)F)n1 [Compound 191, N4-(5-(1-(2-(azetidin-1-yl)ethyl)-1H-pyrazol-4-yl)-4-(difluoromethoxy)pyridin-2-yl)-2-(difluoromethyl)pyrimidine-4,6-diamine]	< 10
